Measurements as given in patent US20120252773A1, “Method and composition for inhibiting cell proliferation and angiogenesis” (priority 2005, published 2012).
Where two headings read alike, the source gives them in different places.

Experiments:
[1] = tested on: granulation tissue in fibrin Z-chambers; assay: In vivo fibrin-Z chamber assay, wound healing and microvessel density; details: rat
Procedure: An in vivo fibrin-Z chamber assay (K. Amin et al., Cancer Biol. Ther. 2:173-178, (2003) was run to analyze wound healing and microvessel density. Plasminogen-free fibrinogen and thrombin were added to a sterile dual porous chamber through a port. To implant the chambers into rats, the animals were anesthetized with 35 mg/kg of sodium pentobarbital. Two incisions approximately 2 cm in length each were made on the dorsum, one over the mid vertebral and the other over the lower vertebral regions. Pockets were made in the subcutaneous fascia lateral to the incisions using blunt end scissors, and the chambers were placed deep into the pockets. The incision wounds were closed with an autoclip stapling device. Triple antibiotic ointment was applied to the incision area to prevent infection. At 24 h after the implantation, rats began to receive a single daily oral dose of (2) at 0, 3, or 30 mg/kg for 12 days. At the end of 12th day, animals were sacrificed. The chambers were harvested, fixed in 10% formalin overnight, and embedded in paraffin for histological analysis. To determine the effect of (2) on wound healing response, granulation tissue (GT) thickness was measured in microns on H&E-stained cross sections of fibrin Z-chambers using the Zeiss Axioskop II equipped with digital camera (Axiocam) and digital imaging software KS 300. To measure the effect of (2) on microvessel density, immunohistochemistry was performed on 4 μm thick paraffin-embedded sections. The sections were deparaffinized in Hemo-D, rehydrated in graded alcohols, subjected to endogenous peroxidase block in 3% H2O2, boiled in 10% citrate buffer for antigen retrieval, blocked with 5% donkey serum, and placed overnight at 4° C. with primary […] monoclonal antibody at 1:20 dilution. […] Images of three hot spots (×200 fields showing maximal vessel density) were captured from each section and the blood vessels counted using the Zeiss interactive digital imaging software KS300. A total of 15 high-power fields (HPFs, 40×) were counted for vessel density for each group.

[2] = tested on: DU-145 Human Androgen-Independent Prostate Cancer Cells; assay: Apoptosis by TUNEL assay in DU-145 cells; type: cell-based; details: DU-145, 10 μM, 24 hours
Procedure: DU-145 cells (ATCC) were treated with 10 μM (2) for 24 hours. Apoptosis was measured by the terminal deoxynucleotidyl transferase mediated dUTP nick end labeling (TUNEL) assay. This assay was conducted using the Apoptosis Detection Kit (Promega, Madison, Wis.) following the instructions provided by the manufacturer. Briefly, DU-145 cells were incubated with (2) for 24, 48, or 72 hours. At the end of incubation, cells were fixed with freshly prepared 4% methanol-free paraformaldehyde in PBS, washed, and then permeabilized in 0.2% Triton X-100 in PBS. The cells on the slides were then incubated with Tdt enzyme for 1 h at 37° C., stained with propidium iodide, and examined under a fluorescence microscope. Fragmented DNA was made visible with green fluorescence stain within the apoptotic cells.

DU-145 cells = assay: Cell cycle analysis by flow cytometry in DU-145 cells; type: cell-based, human; details: DU-145, 10 μM
Procedure: DU-145 cells were treated with 10 μM of (2) for 6, 24, 48, 72, or 96 h. At the end of each time period, cells were hypotonically lysed in DNA staining solution (0.5 mg/ml propidium iodide, 0.1% sodium citrate, and 0.05% Triton X-100). The stained cells were analyzed by flow cytometry (FACS) using software provided by Phoenix Flow System.

[3] = biological target: T1, Human recombinant estrogen receptor-β (ER-β) (Homo sapiens, UniProt Q92731); assay: Estrogen receptor binding assay, 3H-17β-estradiol displacement, ER-β; details: 4° C. overnight
T1 construct: purchased PanVera Corporation (Madison, Wis.)
T1 sequence (Q92731 whole entry): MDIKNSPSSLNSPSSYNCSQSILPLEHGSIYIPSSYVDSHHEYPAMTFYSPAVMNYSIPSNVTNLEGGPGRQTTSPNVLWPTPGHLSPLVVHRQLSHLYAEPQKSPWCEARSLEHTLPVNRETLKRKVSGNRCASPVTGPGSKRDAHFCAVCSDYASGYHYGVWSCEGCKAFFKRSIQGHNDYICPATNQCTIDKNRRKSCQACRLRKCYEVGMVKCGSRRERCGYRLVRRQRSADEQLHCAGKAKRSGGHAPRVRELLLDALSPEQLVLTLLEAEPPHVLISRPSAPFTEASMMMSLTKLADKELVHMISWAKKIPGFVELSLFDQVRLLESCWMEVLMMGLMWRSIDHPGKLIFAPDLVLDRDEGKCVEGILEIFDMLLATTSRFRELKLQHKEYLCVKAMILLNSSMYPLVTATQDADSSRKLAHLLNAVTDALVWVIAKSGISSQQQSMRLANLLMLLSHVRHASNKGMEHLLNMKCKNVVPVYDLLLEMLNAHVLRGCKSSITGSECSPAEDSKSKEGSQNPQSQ
Procedure: Human recombinant estrogen receptor-α (ER-α) and estrogen receptor-β (ER-β) were obtained from PanVera Corporation (Madison, Wis.) to conduct the binding assay. To measure the binding affinity of (2), various concentrations of (2) or 17β-estradiol were incubated with either ER-α or ER-β receptor in the presence of a fixed amount of ^3H-17β-estradiol at 4° C. overnight. At the end of the incubation, the free- and bound-3H-estradiol were separated following the instructions provided by the manufacturer using hydroxylapatite.

[4] = tested on: human endometrial Ishikawa cells; assay: Estrogenic activity, alkaline phosphatase, Ishikawa cell-based assay; details: 72 hours
Procedure: Ishikawa cell based assays were run in parallel on human endometrial Ishikawa cells treated with compound (2) or with 2-methoxyestradiol. 2-Methoxyestradiol is a compound reported in the literature as an anti-angiogenic agent. Cells were cultured in 96-well plates for 48 hours in estrogen- and phenol red-free medium (DMEM/Hamm's F12 medium) containing 5% fetal bovine serum stripped of endogenous estrogens with dextran coated charcoal (Sigma). Compound (2) or other test compounds were then added to the cells and culturing was continued for an additional 72 hours. To the control cells (no (2)), 10^−9 M of […] was added. At the end of 72 hours, alkaline phosphatase activity was measured by adding 5 mM p-nitrophenyl phosphate, 0.24 mM MgCl2, and 1 M diethanolamine (pH 9.8) to the cells while the 96-well plates were kept on ice. The plates were then warmed to room temperature, and the yellow color from the production of p-nitrophenol was measured after 2-3 hours using an ELISA plate reader at a wavelength of 405 nm. The estrogenic activity was defined as the alkaline phosphatase activity stimulated by the test compounds alone as a percentage of that stimulated by estradiol at 10^−9 M. Stimulation by estradiol at 10^−9 M was taken as 100%.

[5] = tested on: Human Dermal Microvascular Endothelial Cells (HDMVEC); assay: Growth inhibition of HDMVEC cells, MTT, 7 days; type: cell-based; details: Endothelial cell
Procedure: To measure the inhibitory activity of (2) on growth of HDMVEC cells (Clonetics, San Diego, Calif.), 2,000 cells were seeded in each well of a 96-well plate in […] of EGM medium (Clonetics) supplemented with 5% fetal bovine serum (Sigma). The plate was incubated at 37° C. in a tissue culture incubator for 24 h, and then various concentrations of (2) dissolved in EGM were added to each well in 5-10 μl aliquots. Four wells were used for each concentration. Medium in each well was renewed with fresh test solution added every other day. After 7 days of culture, the viable cells were measured using reagents from an MTT kit (Promega Corporation, Madison, Wis.), using instructions provided by the supplier. The number of viable cells in treated wells relative to those in control wells gave the percentage of inhibition.
The procedures of Example 3 were carried out to evaluate the inhibitory effect of various compounds of the invention on the growth of HDMVEC cells (Clonetics, San Diego, Calif.).

C[C@@H]1Cc2cc(O)ccc2C2CCC3(C)/C(=C/COCCN(C)C)CCC3C21 (stereo partly drawn) [Compound (2), (E)-3-Hydroxy-7α-methyl-21-[(2-dimethylamino)ethoxy]-19-norpregna-1,3,5(10),17(20)-tetraene]
decrease in granulation tissue thickness ([1]; 3 mg/kg oral once daily for 12 days): about 20%
decrease in granulation tissue thickness ([1]; 30 mg/kg oral once daily for 12 days): more than 35%
decrease in microvessel formation as compared to the control ([1]; oral once daily for 12 days, dose not stated): 30%
apoptosis, fragmented DNA (TUNEL) [2]: quite a few pieces of fragmented DNA were evident
more cells arrested in phase G1 compared with untreated control (DU-145 cells): about 30%
binding affinity (relative to non-radiolabeled estradiol, 50% displacement of 3H-estradiol) [3]: 64
estrogenic activity (alkaline phosphatase stimulation relative to estradiol at 10^−9 M) [4]: essentially no such activity
IC50 ([5]; 168 h, 7 days of culture, MTT, read-out: IC50 value, growth of HDMVEC cells): ~80 nM
IC50 ([5]; HDMVEC growth, procedures of Example 3, read-out: Inhibitory Effect (IC50 Value)): 80 nM
